Laboratory results from US9284333B2, “Fused pyrroledicarboxamides and their use as pharmaceuticals” (SANOFI, priority 2012, dated 2016).

Biological target: Human TASK-1 channels (Homo sapiens (Human), UniProt O14649)
Assay: Determination of the activity on the TASK-1 channel in Xenopus oocytes (two-microelectrode voltage clamp)
Type: cell-based
Conditions: for IC50: human TASK-1 expressed in Xenopus oocytes, room temperature, read-out: IC50 value for TASK-1 inhibition; for inhibition at 5 µM: compound concentration 5 μM
Protocol: Determination of the activity on the TASK-1 channel in Xenopus oocytes
Human TASK-1 channels were expressed in Xenopus oocytes. For this purpose, oocytes were isolated from Xenopus laevis and defoliculated. Subsequently, TASK-1-encoding RNA synthesized in vitro was injected into the oocytes. After two days of TASK-1 protein expression, TASK-1 currents were measured by two-microelectrode voltage clamp. Data were acquired and analyzed using a TEC-10cx amplifier (NPI Electronic, Tamm, Germany) connected to an ITC-16 interface (Instrutech Corp., Long Island, USA) and Pulse software (HEKA Elektronik, Lambrecht, Germany). Oocytes were clamped to −90 mV and TASK-1 mediated currents were measured during 500 ms voltage pulses to 40 mV. Oocytes were continuously superfused with ND96 buffer containing 96 mM sodium chloride, 2 mM potassium chloride, 1.8 mM calcium chloride, 1 mM magnesium chloride, 5 mM 4-(2-hydroxyethyl)-piperazine-1-ethanesulfonic acid (HEPES; pH adjusted to 7.4 with sodium hydroxide). All experiments were performed at room temperature. Test compounds were consecutively added to the bath solution at rising concentrations. Compound effects were calculated as the percentage inhibition of TASK-1 control current before compound addition. IC50 values were obtained by fitting the data to the general dose-response equation.

Sequence of Human TASK-1 channels (O14649 whole entry): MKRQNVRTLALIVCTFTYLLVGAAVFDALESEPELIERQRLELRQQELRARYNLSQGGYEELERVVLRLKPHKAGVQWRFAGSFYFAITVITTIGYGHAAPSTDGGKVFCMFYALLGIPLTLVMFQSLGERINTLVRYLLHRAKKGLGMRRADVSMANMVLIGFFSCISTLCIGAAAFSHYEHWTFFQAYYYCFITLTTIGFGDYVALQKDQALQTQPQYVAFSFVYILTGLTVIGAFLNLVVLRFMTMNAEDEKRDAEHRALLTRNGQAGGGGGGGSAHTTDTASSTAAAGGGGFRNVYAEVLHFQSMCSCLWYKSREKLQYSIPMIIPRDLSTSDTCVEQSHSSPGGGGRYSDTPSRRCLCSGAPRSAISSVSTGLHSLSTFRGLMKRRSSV

| IC50 [nM] | inhibition at 5 µM [%] | SMILES |
| --- | --- | --- |
| 840 | – | CC[C@@H](NC(=O)c1cc(C(=O)N2CC[C@@H](OC)C2)n2c1CCCC2)c1ccccc1 [16mg, 3-((R)-3-Methoxy-pyrrolidine-1-carbonyl)-5,6,7,8-tetrahydro-indolizine-1-carboxylic acid ((R)-1-phenyl-propyl)-amide] |
| 180 | – | CC[C@@H](NC(=O)c1cc(C(=O)N2CCCC2C(C)(C)C)n2c1COCC2)c1ccccc1 (stereo partly drawn) [16ex, 6-(2-tert-Butyl-pyrrolidine-1-carbonyl)-3,4-dihydro-1H-pyrrolo[2,1-c][1,4]oxazine-8-carboxylic acid ((R)-1-phenyl-propyl)-amide] |
| 1400 | – | CC[C@@H](NC(=O)c1cc(C(=O)N(CCO)CC2CC2)n2c1COCC2)c1ccccc1 [16hk, 3,4-Dihydro-1H-pyrrolo[2,1-c][1,4]oxazine-6,8-dicarboxylic acid 6-[cyclopropylmethyl-(2-hydroxy-ethyl)-amide] 8-[((R)-1-phenyl-propyl)-amide]] |
| 180 | – | CC[C@@H](NC(=O)c1cc(C(=O)N2CCCC2COC(F)(F)F)n2c1COCC2)c1ccccc1 (stereo partly drawn) [16en, 6-(2-Trifluoromethoxymethyl-pyrrolidine-1-carbonyl)-3,4-dihydro-1H-pyrrolo[2,1-c][1,4]oxazine-8-carboxylic acid ((R)-1-phenyl-propyl)-amide] |
| 33 | – | CC[C@@H](NC(=O)c1cc(C(=O)N[C@H](C)c2ccc(F)cc2)n2c1CSC2)c1ccccc1 [16ky, 1H-Pyrrolo[1,2-c]thiazole-5,7-dicarboxylic acid 5-{[(R)-1-(4-fluoro-phenyl)-ethyl]-amide} 7-[((R)-1-phenyl-propyl)-amide]] |
| – | 71 | CC[C@@H](NC(=O)c1cc(C(=O)NC(C)c2nnnn2CC)n2c1COCC2)c1ccccc1 (stereo partly drawn) [16rr, 3,4-Dihydro-1H-pyrrolo[2,1-c][1,4]oxazine-6,8-dicarboxylic acid 6-{[1-(1-ethyl-1H-tetrazol-5-yl)-ethyl]-amide} 8-[((R)-1-phenyl-propyl)-amide]] |
| 27 | – | CC[C@@H](NC(=O)c1cc(C(=O)N[C@H](C)c2ccc(F)cc2)n2c1SCC2)c1ccccc1 [16kt, 2,3-Dihydro-pyrrolo[2,1-b]thiazole-5,7-dicarboxylic acid 5-{[(R)-1-(4-fluoro-phenyl)-ethyl]-amide} 7-[((R)-1-phenyl-propyl)-amide]] |
| 13 | – | CC[C@H](NC(=O)c1cc(C(=O)N[C@H](CC)c2ccccc2)c2n1CCCC2)c1ccccc1 [16mb, 5,6,7,8-Tetrahydro-indolizine-1,3-dicarboxylic acid 3-[((S)-1-phenyl-propyl)-amide] 1-[((R)-1-phenyl-propyl)-amide]] |
| 2800 | – | CC[C@@H](NC(=O)c1cc(C(=O)NC(C)c2nnnn2C)n2c1COCC2)c1ccccc1 (stereo partly drawn) [16ro, 3,4-dihydro-1H-pyrrolo[2,1-c][1,4]oxazine-6,8-dicarboxylic acid 6-{[1-(1-methyl-1H-tetrazol-5-yl)-ethyl]-amide} 8-[((R)-1-phenyl-propyl)-amide]] |
| 1100 | – | CC[C@@H](NC(=O)c1cc(C(=O)N2CCN(c3ccccn3)CC2)n2c1COCC2)c1ccccc1 [16fq, 6-(4-Pyridin-2-yl-piperazine-1-carbonyl)-3,4-dihydro-1H-pyrrolo[2,1-c][1,4]oxazine-8-carboxylic acid ((R)-1-phenyl-propyl)-amide] |
| 1000 | – | CC[C@@H](NC(=O)c1cc(C(=O)NCc2ncco2)c2n1CCOC2)c1ccccc1 [16jn, 3,4-Dihydro-1H-pyrrolo[2,1-c][1,4]oxazine-6,8-dicarboxylic acid 8-[(oxazol-2-ylmethyl)-amide] 6-[((R)-1-phenyl-propyl)-amide]] |
| 270 | – | CC[C@@H](NC(=O)c1cc(C(=O)N2CCC[C@@H]2C)n2c1CSCC2)c1ccccc1 [16kz, 6-((S)-2-Methyl-pyrrolidine-1-carbonyl)-3,4-hihydro-1H-pyrrolo[2,1-c][1,4]thiazine-8-carboxylic acid ((R)-1-phenyl-propyl)-amide] |
| 310 | – | CC[C@@H](NC(=O)c1cc(C(=O)N[C@H](CC)c2ccccn2)n2c1COCC2)c1ccccc1 [16gr, 3,4-Dihydro-1H-pyrrolo[2,1-c][1,4]oxazine-6,8-dicarboxylic acid 8-[((R)-1-phenyl-propyl)-amide] 6-[((R)-1-pyridin-2-yl-propyl)-amide]] |

The remaining lines, values behind:

| SMILES | IC50 [nM] | inhibition at 5 µM [%] |
| --- | --- | --- |
| C[C@H]1CCCN1C(=O)c1cc(C(=O)NCc2c(F)cccc2F)c2n1CCOC2 [16y, 6-((S)-2-Methyl-pyrrolidine-1-carbonyl)-3,4-dihydro-1H-pyrrolo[2,1-c][1,4]oxazine-8-carboxylic acid 2,6-difluoro-benzylamide] | 1000 | – |
| CC[C@@H](NC(=O)c1cc(C(=O)N[C@H](C)c2ccc(F)cc2)n2c1COCC2)c1ccc(C(F)(F)F)cc1 [16eb, 3,4-Dihydro-1H-pyrrolo[2,1-c][1,4]oxazine-6,8-dicarboxylic acid 6-{[(R)-1-(4-fluoro-phenyl)-ethyl]-amide} 8-{[(R)-1-(4-trifluoromethyl-phenyl)-propyl]-amide}] | 250 | – |
| CC[C@@H](NC(=O)c1cc(C(=O)N2CCC[C@@H]2C)n2c1COCC2)c1cccc(OC)n1 [16z, 6-((S)-2-Methyl-pyrrolidine-1-carbonyl)-3,4-dihydro-1H-pyrrolo[2,1-c][1,4]oxazine-8-carboxylic acid [(R)-1-(6-methoxy-pyridin-2-yl)-propyl]-amide] | 270 | – |
| O=C(N[C@@H](c1ccc(F)cc1)C1CC1)c1cc(C(=O)N2CCCC2)n2c1COCC2 [16dg, 6-(Pyrrolidine-1-carbonyl)-3,4-dihydro-1H-pyrrolo[2,1-c][1,4]oxazine-8-carboxylic acid [(R)-cyclopropyl-(4-fluoro-phenyl)-methyl]-amide] | 300 | – |
| CC[C@@H](NC(=O)c1cc(C(=O)N2CCC[C@@H]2C)n2c1COCC2)c1ccc(C(F)F)cc1 [16au, 6-((S)-2-Methyl-pyrrolidine-1-carbonyl)-3,4-dihydro-1H-pyrrolo[2,1-c][1,4]oxazine-8-carboxylic acid [(R)-1-(4-difluoromethyl-phenyl)-propyl]-amide] | 340 | – |
| CC(C)[C@@H](NC(=O)c1cc(C(=O)N2CCC[C@@H]2C)n2c1COCC2)c1ccc(F)cc1 [16p, 6-((S)-2-Methyl-pyrrolidine-1-carbonyl)-3,4-dihydro-1H-pyrrolo[2,1-c][1,4]oxazine-8-carboxylic acid [(R)-1-(4-fluoro-phenyl)-2-methyl-propyl]-amide] | 380 | – |
| CC(c1ncccn1)N(CC1CC1)C(=O)c1cc(C(=O)N[C@H](C)c2ccc(F)cc2)n2c1COCC2 (stereo partly drawn) [16ea, 3,4-Dihydro-1H-pyrrolo[2,1-c][1,4]oxazine-6,8-dicarboxylic acid 8-[cyclopropylmethyl-(1-pyrimidin-2-yl-ethyl)-amide] 6-{[(R)-1-(4-fluoro-phenyl)-ethyl]-amide}] | – | 72 |
| CC(NC(=O)c1cc(C(=O)N[C@@H](c2ccc(F)cc2)C(C)C)n2c1COCC2)c1ccno1 (stereo partly drawn) [16lk, 3,4-Dihydro-1H-pyrrolo[2,1-c][1,4]oxazine-6,8-dicarboxylic acid 6-{[(R)-1-(4-fluoro-phenyl)-2-methyl-propyl]-amide} 8-[(1-isoxazol-5-yl-ethyl)-amide]] | 310 | – |
| CCC(NC(=O)c1cc(C(=O)N2CCC[C@@H]2C)n2c1COCC2)c1nccs1 (stereo partly drawn) [16ae, 6-((S)-2-Methyl-pyrrolidine-1-carbonyl)-3,4-dihydro-1H-pyrroIo[2,1-c][1,4]oxazine-8-carboxylic acid (1-thiazol-2-yl-propyl)-amide] | 670 | – |
